Some results are limits rather than exact numbers.
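Note: spheroids exposed to compounds for 7 days before readout.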

One assay deals with 282377-053-R-J1-PDC complex spheroids, viability. As to the kind of experiment: Anticancer human tumor 282377-053-R-J1-PDC patient-derived colon adenocarcinoma cell line growth inhibition [GQUAD]. The conditions noted are these: curve of first compound; second compound 0.0316 µM. In a few lines: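 Multi-cell-type spheroids of tumor cells with HUVEC and mesenchymal stem cells, treated with drug combinations. Concentrations descend in half-log steps from near clinical Cmax, or from 10 microM where Cmax is unknown; viability read-out.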
Take `C=CCn1c(=O)c2cnc(Nc3ccc(N4CCN(C)CC4)cc3)nc2n1-c1cccc(C(C)(C)O)n1` + Cc1[nH]c2ccc(F)cc2c1-c1nc2c3cccnc3c3ncccc3c2[nH]1: the IC50 (usually the concentration at which inhibition is half-maximal) stood at 4.25 µM.

Consider `COc1ncnc(C2CC2)c1-c1ncc2cnn(Cc3ccc(-c4nc(C(F)(F)F)cn4C(C)C)cc3)c2n1` + Cc1[nH]c2ccc(F)cc2c1-c1nc2c3cccnc3c3ncccc3c2[nH]1, for which the IC50 is 5.7 µM.

With `CC1COCCN1c1cc(-c2ccnn2C)c2ccnc(-c3ccn[nH]3)c2n1` (stereo unspecified) + Cc1cnc(CNC(=O)c2c(=O)c3ccc(N4CCCN(C)CC4)nc3n3c2sc2ccccc23)cn1, the IC50 was found to be 0.0974 µM.

`CC1COCCN1c1cc(C2(S(C)(=N)=O)CC2)nc(-c2ccnc3[nH]ccc23)n1` (stereo unspecified) + Cc1cnc(CNC(=O)c2c(=O)c3ccc(N4CCCN(C)CC4)nc3n3c2sc2ccccc23)cn1: the IC50 is greater than 10 µM.

On to `COc1ccc([C@@H](O)c2cc(-c3ncnc4cc(N5CCOCC5)ccc34)c(F)cc2Cl)nn1` + Cc1cnc(CNC(=O)c2c(=O)c3ccc(N4CCCN(C)CC4)nc3n3c2sc2ccccc23)cn1, for which the IC50 is greater than 10 µM.

Staying with this assay, now noted: curve of first compound; second compound 0.1 µM.
With `C=CCn1c(=O)c2cnc(Nc3ccc(N4CCN(C)CC4)cc3)nc2n1-c1cccc(C(C)(C)O)n1` + Cc1[nH]c2ccc(F)cc2c1-c1nc2c3cccnc3c3ncccc3c2[nH]1, the IC50 came to 3.54 µM.

`COc1ncnc(C2CC2)c1-c1ncc2cnn(Cc3ccc(-c4nc(C(F)(F)F)cn4C(C)C)cc3)c2n1` + Cc1[nH]c2ccc(F)cc2c1-c1nc2c3cccnc3c3ncccc3c2[nH]1: the IC50 turned out to be 5.93 µM.

In the case of `CC1COCCN1c1cc(-c2ccnn2C)c2ccnc(-c3ccn[nH]3)c2n1` (stereo unspecified) + Cc1cnc(CNC(=O)c2c(=O)c3ccc(N4CCCN(C)CC4)nc3n3c2sc2ccccc23)cn1, the IC50 was 0.0769 µM.

Take `CC1COCCN1c1cc(C2(S(C)(=N)=O)CC2)nc(-c2ccnc3[nH]ccc23)n1` (stereo unspecified) + Cc1cnc(CNC(=O)c2c(=O)c3ccc(N4CCCN(C)CC4)nc3n3c2sc2ccccc23)cn1: the IC50 amounted to 4.51 µM.

As to `COc1ccc([C@@H](O)c2cc(-c3ncnc4cc(N5CCOCC5)ccc34)c(F)cc2Cl)nn1` + Cc1cnc(CNC(=O)c2c(=O)c3ccc(N4CCCN(C)CC4)nc3n3c2sc2ccccc23)cn1, the 50% inhibitory concentration (IC50) was determined as 8.31 µM.

The same assay, now with this note: curve of first compound; second compound 0.316 µM.
With `C=CCn1c(=O)c2cnc(Nc3ccc(N4CCN(C)CC4)cc3)nc2n1-c1cccc(C(C)(C)O)n1` + Cc1[nH]c2ccc(F)cc2c1-c1nc2c3cccnc3c3ncccc3c2[nH]1, the IC50 turned out to be 3.23 µM.

As to `COc1ncnc(C2CC2)c1-c1ncc2cnn(Cc3ccc(-c4nc(C(F)(F)F)cn4C(C)C)cc3)c2n1` + Cc1[nH]c2ccc(F)cc2c1-c1nc2c3cccnc3c3ncccc3c2[nH]1, the IC50 worked out at 5.9 µM.

Regarding `CC1COCCN1c1cc(-c2ccnn2C)c2ccnc(-c3ccn[nH]3)c2n1` (stereo unspecified) + Cc1cnc(CNC(=O)c2c(=O)c3ccc(N4CCCN(C)CC4)nc3n3c2sc2ccccc23)cn1, the half-maximal inhibitory concentration (IC50) is less than 0.0316 µM.

As to `CC1COCCN1c1cc(C2(S(C)(=N)=O)CC2)nc(-c2ccnc3[nH]ccc23)n1` (stereo unspecified) + Cc1cnc(CNC(=O)c2c(=O)c3ccc(N4CCCN(C)CC4)nc3n3c2sc2ccccc23)cn1, the IC50 came out at 5.63 µM.

Take `COc1ccc([C@@H](O)c2cc(-c3ncnc4cc(N5CCOCC5)ccc34)c(F)cc2Cl)nn1` + Cc1cnc(CNC(=O)c2c(=O)c3ccc(N4CCCN(C)CC4)nc3n3c2sc2ccccc23)cn1: the IC50 stood at 3.51 µM.

The same assay, now with this note: curve of first compound; second compound 1 µM.
On to `C=CCn1c(=O)c2cnc(Nc3ccc(N4CCN(C)CC4)cc3)nc2n1-c1cccc(C(C)(C)O)n1` + Cc1[nH]c2ccc(F)cc2c1-c1nc2c3cccnc3c3ncccc3c2[nH]1, for which the IC50 was found to be 1.95 µM.

As for `COc1ncnc(C2CC2)c1-c1ncc2cnn(Cc3ccc(-c4nc(C(F)(F)F)cn4C(C)C)cc3)c2n1` + Cc1[nH]c2ccc(F)cc2c1-c1nc2c3cccnc3c3ncccc3c2[nH]1, the IC50 was 5.46 µM.

With `CC1COCCN1c1cc(-c2ccnn2C)c2ccnc(-c3ccn[nH]3)c2n1` (stereo unspecified) + Cc1cnc(CNC(=O)c2c(=O)c3ccc(N4CCCN(C)CC4)nc3n3c2sc2ccccc23)cn1, the IC50 was less than 0.0316 µM.

For the molecule `CC1COCCN1c1cc(C2(S(C)(=N)=O)CC2)nc(-c2ccnc3[nH]ccc23)n1` (stereo unspecified) + Cc1cnc(CNC(=O)c2c(=O)c3ccc(N4CCCN(C)CC4)nc3n3c2sc2ccccc23)cn1, the IC50 turned out to be 3.78 µM.

On to `COc1ccc([C@@H](O)c2cc(-c3ncnc4cc(N5CCOCC5)ccc34)c(F)cc2Cl)nn1` + Cc1cnc(CNC(=O)c2c(=O)c3ccc(N4CCCN(C)CC4)nc3n3c2sc2ccccc23)cn1, for which the IC50 came out at 0.328 µM.

The same assay, now with this note: curve of first compound; second compound 3.16 µM.
Take `C=CCn1c(=O)c2cnc(Nc3ccc(N4CCN(C)CC4)cc3)nc2n1-c1cccc(C(C)(C)O)n1` + Cc1[nH]c2ccc(F)cc2c1-c1nc2c3cccnc3c3ncccc3c2[nH]1: the IC50 is 0.0447 µM.

`COc1ncnc(C2CC2)c1-c1ncc2cnn(Cc3ccc(-c4nc(C(F)(F)F)cn4C(C)C)cc3)c2n1` + Cc1[nH]c2ccc(F)cc2c1-c1nc2c3cccnc3c3ncccc3c2[nH]1: the IC50 came out at 4.13 µM.

`CC1COCCN1c1cc(-c2ccnn2C)c2ccnc(-c3ccn[nH]3)c2n1` (stereo unspecified) + Cc1cnc(CNC(=O)c2c(=O)c3ccc(N4CCCN(C)CC4)nc3n3c2sc2ccccc23)cn1: the IC50 was less than 0.0316 µM.

For `CC1COCCN1c1cc(C2(S(C)(=N)=O)CC2)nc(-c2ccnc3[nH]ccc23)n1` (stereo unspecified) + Cc1cnc(CNC(=O)c2c(=O)c3ccc(N4CCCN(C)CC4)nc3n3c2sc2ccccc23)cn1, the IC50 worked out at 3.52 µM.

`COc1ccc([C@@H](O)c2cc(-c3ncnc4cc(N5CCOCC5)ccc34)c(F)cc2Cl)nn1` + Cc1cnc(CNC(=O)c2c(=O)c3ccc(N4CCCN(C)CC4)nc3n3c2sc2ccccc23)cn1: the 50% inhibitory concentration (IC50) stood at 0.0778 µM.

The same assay, now with this note: curve of first compound; second compound 10 µM.
On to `C=CCn1c(=O)c2cnc(Nc3ccc(N4CCN(C)CC4)cc3)nc2n1-c1cccc(C(C)(C)O)n1` + Cc1[nH]c2ccc(F)cc2c1-c1nc2c3cccnc3c3ncccc3c2[nH]1, for which the half-maximal inhibitory concentration (IC50) was less than 0.0316 µM.

Source of the values: PubChem BioAssay AID2060501 (Molecular Pharmacology Branch, DTP, NCI, 2025).
